Assay results from ChEMBL document CHEMBL4033705, “Screening for bioactive natural products from a 67-compound library of Glycyrrhiza inflata” (Bioorg Med Chem, 2017).

What was measured:
[1] = Growth inhibition of human LO2 cells at 10 uM after 24 hrs by MTS assay relative to control; format: cell-based, L02; conditions: LO2 cells, read-out: GI
RAW264.7 [2] = assay: Antiinflammatory activity in mouse RAW264.7 cells assessed as inhibition of LPS-induced NO production at 10 uM after 24 hrs by Griess reagent based assay relative to control; format: functional; conditions: RAW264.7, 24 h
HepG2 [3] = assay: Growth inhibition of human HepG2 cells at 10 uM after 24 hrs by MTS assay relative to control; format: functional; conditions: HepG2, 24 h, read-out: GI
[4] = biological target: T1, Tyrosine-protein phosphatase non-receptor type 1 (Homo sapiens) (UniProt P18031); assay: Inhibition of recombinant human PTP1B using p-nitrophenyl phosphate as substrate at 10 uM after 30 mins relative to control
T1 sequence (whole entry): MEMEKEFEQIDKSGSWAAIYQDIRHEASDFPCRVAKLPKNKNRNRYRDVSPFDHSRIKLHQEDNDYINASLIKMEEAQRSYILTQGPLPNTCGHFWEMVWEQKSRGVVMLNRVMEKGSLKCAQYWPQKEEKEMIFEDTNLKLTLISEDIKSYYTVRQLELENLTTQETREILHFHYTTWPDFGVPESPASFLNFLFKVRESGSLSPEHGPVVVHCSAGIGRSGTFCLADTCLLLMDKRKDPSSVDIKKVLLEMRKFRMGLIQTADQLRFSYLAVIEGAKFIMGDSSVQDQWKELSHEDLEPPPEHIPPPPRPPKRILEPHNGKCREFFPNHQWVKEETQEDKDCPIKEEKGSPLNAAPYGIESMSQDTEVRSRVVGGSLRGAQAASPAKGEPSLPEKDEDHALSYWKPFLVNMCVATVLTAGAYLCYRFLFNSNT

[5] = Growth inhibition of human HEK293T cells at 10 uM after 24 hrs by MTS assay relative to control; format: cell-based, HEK-293T; conditions: HEK293T cells, read-out: GI
SW480 [6] = assay: Growth inhibition of human SW480 cells at 10 uM after 24 hrs by MTS assay relative to control; format: functional; conditions: SW480, 24 h, read-out: GI
Homo sapiens = species on record: Homo sapiens; assay: Inhibition of LPS-induced NF-kappaB transcription (unknown origin) expressed in human SW480 cells at 10 uM by luciferase reporter gene assay; format: cell-based
[7] = Inhibition of LPS-induced NF-kappaB transcription (unknown origin) expressed in human SW480 cells by luciferase reporter gene assay; format: cell-based
MCF7 [8] = assay: Growth inhibition of human MCF7 cells at 10 uM after 24 hrs by MTS assay relative to control; format: functional; conditions: MCF7, 24 h, read-out: GI
[9] = biological target: Mushroom tyrosinase (Agaricus bisporus) (UniProt O42713+Q00024+C7FF04+C7FF05); assay: Inhibition of mushroom tyrosinase at 10 uM using L-tyrosine as substrate incubated for 15 mins followed by substrate addition relative to control
SW480 [10] = assay: Cytotoxicity against human SW480 cells assessed as reduction in cell viability after 24 hrs by MTS assay; format: functional, cell-based; conditions: SW480, 24 h
[11] = biological target: T2, Tyrosine-protein phosphatase non-receptor type 1 (Homo sapiens, UniProt P18031); assay: Inhibition of recombinant human PTP1B using p-nitrophenyl phosphate as substrate after 30 mins
T2 sequence (P18031 whole entry): T1 sequence (whole entry)

MCF7 [12] = assay: Cytotoxicity against human MCF7 cells assessed as reduction in cell viability after 24 hrs by MTS assay; format: functional, cell-based; conditions: MCF7, 24 h
RAW264.7 [13] = assay: Antiinflammatory activity in mouse RAW264.7 cells assessed as inhibition of LPS-induced NO production after 24 hrs by Griess reagent based assay; format: functional, cell-based; conditions: RAW264.7, 24 h
HepG2 [14] = assay: Cytotoxicity against human HepG2 cells assessed as reduction in cell viability after 24 hrs by MTS assay; format: functional, cell-based; conditions: HepG2, 24 h

Compound | inhibition at 24 h, 10 µM [1] [%] | inhibition at 10 µM (RAW264.7 [2]) [%] | inhibition of growth at 10 µM (HepG2 [3]) [%] | inhibition [4] [%] | inhibition at 24 h, 10 µM [5] [%] | inhibition of growth at 10 µM (SW480 [6]) [%] | inhibition (Homo sapiens) [%] | IC50 [7] [µM] | inhibition of growth at 10 µM (MCF7 [8]) [%] | inhibition [9] [%] | IC50 (SW480 [10]) [µM] | IC50 [11] [µM] | IC50 (MCF7 [12]) [µM] | IC50 (RAW264.7 [13]) [µM] | IC50 (HepG2 [14]) [µM]
CC1(C)C=Cc2cc(/C=C/C(=O)c3ccc(O)cc3O)ccc2O1 | 5 | 23 | 0 | 33 | 7 | 14 | 78 | 7.27 | 14 | 1 | – | – | – | – | –
CC(C)=CCc1cc(/C=C/C(=O)c2ccc(O)c(CC=C(C)C)c2O)ccc1O [KANZONOL C] | 34 | 19 | 27 | 90 | 21 | 96 | 6 | – | 79 | 0 | 6.1 | 0.45 | 9.15 | – | –
CC1(C)C=Cc2c(ccc(-c3cc4ccc(O)cc4o3)c2O)O1 | 4 | 22 | 5 | 15 | 11 | 31 | 73 | 3.1 | 0 | 14 | – | – | – | – | –
CC(C)=CCc1cc(/C=C/C(=O)c2ccc(O)cc2O)ccc1O [LICOAGROCHALCONE A] | 3 | 16 | 2 | 98 | 2 | 12 | 25 | – | 2 | 16 | – | 0.97 | – | – | –
CC(C)=CCc1c(O)cc(O)c2c(=O)cc(-c3ccc(O)cc3)oc12 | – | 58 | 21 | 18 | – | 19 | 3 | – | 0 | 2 | – | – | – | 3.83 | –
COc1c(/C=C/C(=O)c2ccc(O)cc2)ccc(O)c1O | 6 | 71 to 73 | 4 | 64 | 7 | 9 | 4 | – | 13 | 8 | – | – | – | 8.78 | –
CC(C)=CCc1cc(-c2coc3c(CC=C(C)C)c(O)cc(O)c3c2=O)cc(O)c1O | – | 0 | 0 | 92 | – | 55 | 14 | – | 3 | 2 | – | 4.5 | – | – | –
C=CC(C)(C)c1cc(/C=C/C(=O)c2ccc(O)cc2)c(OC)c(O)c1O | 5 | 50 | 22 | 48 | 11 | 36 | 66 | 6.67 | 31 | 12 | – | – | – | – | –
C=CC(C)(C)c1cc(/C=C/C(=O)c2ccc(O)cc2)c(OC)cc1O [LICOAGROCHACONE A] | 16 | 39 | 14 | 18 | 4 | 7 | 56 | 13.9 | 10 | 1 | – | – | – | – | –
CC(C)=CCc1c(O)c(CC=C(C)C)c2occ(-c3ccc(O)cc3)c(=O)c2c1O | 12 | 22 | 30 | 51 | 49 | 81 | 26 | – | 73 | 7 | 8.08 | – | 8.58 | – | –
CC(C)=CCc1cc([C@@H]2CC(=O)c3c(cc(O)c(CC=C(C)C)c3O)O2)ccc1O [MACARANGAFLAVANONE B] | – | 5 | 10 | 90 | – | 87 | 24 | – | 36 | 5 | – | 1.03 | – | – | –
CC(C)=CCc1cc([C@@H]2CC(=O)c3ccc(O)c(CC=C(C)C)c3O2)ccc1O [GLABROL] | 16 | 6 | 98 | 92 | 36 | 98 | 21 | – | 97 | 8 | 5.15 | 0.31 | 7.62 | – | 2.83
CC(C)=CCc1cc(-c2cc(=O)c3c(O)c(CC=C(C)C)c(O)cc3o2)ccc1O | 33 | 5 | 34 | 94 | 3 | 86 | 0 | – | 25 | 12 | 6.35 | 0.55 | – | – | –
CC(C)=CCc1c(O)cc2occ(-c3ccc4c(c3O)C=CC(C)(C)O4)c(=O)c2c1O | 16 | 26 | 75 | 34 | 39 | 99 | 23 | – | 79 | 7 | 6.72 | – | 8.58 | – | 7.07
CC(C)=CCc1c(O)ccc([C@H]2COc3cc(O)c(CC=C(C)C)c(O)c3C2=O)c1O | 0 | 14 | 25 | 98 | 4 | 2 | 37 | – | 44 | 7 | – | 0.84 | – | – | –
